This assay has as its target Lysine-specific histone demethylase 1A (Homo sapiens, UniProt O60341). Description: Inhibition of N-terminal GST tagged LSD1 (residues 171 - 852) (unknown origin) overexpressed in Escherichia coli using ARTK(Me)2QTARKSTGGKAPRKQLAas substrate incubated for 20 mins by spectrophotometric analysis.

Take `Nc1ccccc1NC(=O)c1ccc(CCCC(=O)Nc2ccc(C3CC3N)cc2)cc1` (stereo unspecified): the 50% inhibitory concentration (IC50) (commonly the concentration that inhibits the measured activity by half) worked out at 330 nM.

Values taken from BindingDB's records for PubMed 33077264 (Menoufia University, 2021).
